From patent US20210330611A1, “THERAPY FOR NEUROLOGICAL DISEASES/DISORDERS” (priority 2020, published 2021)
Where a name gives a salt, the structure may show the parent alone. Read-outs that look alike come from different tables or passages of the source.

Columns and labels:
[1] = tested on: fibrin-induced microglia activation; test: Image-based assay of fibrin-induced microglia activation (HTS and dose response); format: cell-based, rat; settings: for IC50 / inhibition at 10 µM: Rattus norvegicus, Microglia; for inhibition at 10 µM: read-out: Fibrin % inhibition
in vitro [2] = settings: rat, Cell Toxicity IC50 (uM) [cFib assay]
[3] = tested on: LPS-induced microglia activation; test: Image-based assay of LPS-induced microglia activation (HTS and dose response); format: cell-based, rat; settings: Rattus norvegicus, Microglia; for inhibition at 10 µM: read-out: LPS % inhibition
primary rat microglia [4] = test: Cell toxicity (dead cells, size <150 μm2) in LPS assay
primary rat microglia [5] = test: Cell toxicity (dead cells, size <150 μm2) in coated fibrin (cFib) assay;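 for Fibrin % cell toxicity: share of dead cells sized under 150 µm2 at 10 µM in fibrin-stimulated microglia HTS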
[6] = tested on: fibrin- and LPS-induced microglia activation; test: cells; format: cell-based, rat; settings: for inhibition at 10 µM: Rattus norvegicus
in vitro [7] = settings: rat
[8] = 48 h, Table 1, dose response 0.001-20 μM, triplicates, primary rat microglia, 48 h, read-out: Fibrin IC50
[9] = dose response, fibrin-induced microglia activation, read-out: Fibrin IC50
[10] = fibrin-induced microglia activation, dose response, read-out: Fibrin IC50 (uM) (Suppl. Table 7)
[11] = primary microglia HTS, fibrin stimulation, increased cell size (>800 μm^2) as marker of activation
[12] = 48 h, Table 1, dose response 0.001-20 μM, triplicates, primary rat microglia, 48 h, read-out: LPS IC50
[13] = 48 h, primary microglia HTS, LPS stimulation, increased cell size (>800 μm^2) as marker of activation
[14] = LPS-induced microglia activation, dose response, read-out: LPS IC50 (uM) (Suppl. Table 7)
[15] = dose response, LPS-induced microglia activation, read-out: LPS IC50
[16] = primary microglia HTS, LPS stimulation, decreased size (<150 μm^2) as marker of toxicity
[17] = primary microglia HTS, fibrin stimulation, decreased size (<150 μm^2) as marker of toxicity
[18] = HTS of 1907 compounds, quadrant by fibrin and LPS inhibition
[19] = Microglia, HTS hit classification, read-out: Hit
[20] = hit classification in microglia HTS, read-out: Cherry-picked Hit (Suppl. Table 7)
[21] = quadrant by fibrin and LPS inhibition in HTS of 1907 compounds

For `CCC(=O)O[C@]1(C(=O)CCl)[C@@H](C)C[C@H]2[C@@H]3CCC4=CC(=O)C=C[C@]4(C)[C@@]3(F)[C@@H](O)C[C@@]21C` [Clobetasol propionate, reference compound], the IC50 [1, 8] was under 0.001 µM, the IC50 [1, 9] was under 0.001 µM and the IC50 [1, 10] was under 0.001 µM. For the same molecule, the inhibition at 10 µM ([1]; primary HTS, 10 μM, fibrin-stimulated primary microglia) was -22%, the inhibition at 10 µM [1, 11] was 108% and the IC50 (in vitro [2]; cFib assay) was over 20 µM. It also gave an IC50 [3, 12] of under 0.001 µM, an inhibition at 10 µM [3, 13] of 105% and an IC50 [3, 14] of under 0.001 µM. For the same molecule, the IC50 [3, 15] was under 0.001 µM, the inhibition at 10 µM ([3]; primary HTS, 10 μM, LPS-stimulated primary microglia) was 30% and the “LPS % cell toxicity” value (primary rat microglia [4]; primary HTS, 10 μM, LPS assay, dead cells size <150 μm2) was 2%. For the same molecule, the “LPS % cell toxicity” value (primary rat microglia [4]; [16]) was 3%, the “Fibrin % cell toxicity” value (primary rat microglia [5]; primary HTS, 10 μM, fibrin assay, dead cells size <150 μm2) was 1% and the “Fibrin % cell toxicity” value (primary rat microglia [5]; [17]) was 3%. The “Quadrant (FIG. 5b)” value [6, 18] was “Q2”, the inhibition at 10 µM [6, 19] was over 50% and the inhibition at 10 µM [6, 20] was over 50%. The “Quadrant (FIG. 5b)” value ([6]; Table 1, screen at 10 μM) was “Q2”, the “Quadrant (FIG. 5b)” value ([6]; primary HTS, 10 μM) was “Q4” and the “Quadrant (FIG. 5b)” value [6, 21] was “Q2”. For the same molecule, the IC50 (in vitro [7]) was over 20 µM.
Molecule `Cc1cccc(C)c1NC(=O)c1ccccc1C(=O)O` [Ftaxilide, reference compound] has an IC50 [1, 8] of over 20 µM, an IC50 [1, 9] of over 20 µM and an IC50 [1, 10] of over 20 µM. The inhibition at 10 µM [1, 11] was 78%, the IC50 (in vitro [2]; cFib assay) was over 20 µM and the IC50 [3, 12] was over 20 µM. The inhibition at 10 µM [3, 13] was 42%, the IC50 [3, 14] was over 20 µM and the IC50 [3, 15] was over 20 µM. The “LPS % cell toxicity” value (primary rat microglia [4]; [16]) was 1%, the “Fibrin % cell toxicity” value (primary rat microglia [5]; [17]) was 2% and the “Quadrant (FIG. 5b)” value [6, 18] was “Q3”. For the same molecule, the inhibition at 10 µM [6, 19] was over 50%, the inhibition at 10 µM [6, 20] was over 50% and the “Quadrant (FIG. 5b)” value ([6]; Table 1, screen at 10 μM) was “Q3”. For the same molecule, the “Quadrant (FIG. 5b)” value [6, 21] was “Q3” and the IC50 (in vitro [7]) was over 20 µM.
For `COc1ccccc1N1CCN(CC(O)COc2cccc3ccccc23)CC1` (stereo not shown) [Naftopidil dihydrochloride, reference compound], the “Fibrin Selectivity” value [1] was 3, the “Fibrin Selectivity (LOG10)” value [1] was 0.45 and the IC50 [1, 8] was 7 µM. It also gave an IC50 ([1]; Table 3, read-out: Fibrin IC50 (uM) (Suppl. Table 7)) of 7 µM, an IC50 [1, 9] of 7 µM and an IC50 [1, 10] of 7 µM. The inhibition at 10 µM [1, 11] was 59%, the IC50 (in vitro [2]; Table 3) was over 20 µM and the IC50 (in vitro [2]; cFib assay) was over 20 µM. For the same molecule, the IC50 [3, 12] was over 20 µM, the inhibition at 10 µM [3, 13] was 32% and the IC50 [3, 14] was over 20 µM. The IC50 ([3]; Table 3, read-out: LPS IC50 (uM) (Suppl. Table 7)) was over 20 µM, the IC50 [3, 15] was over 20 µM and the “LPS % cell toxicity” value (primary rat microglia [4]; [16]) was 0%. The IC50 (primary rat microglia [4]; read-out: Cell Toxicity IC50 (uM) [LPS assay], LPS assay) was over 20 µM, the “Fibrin % cell toxicity” value (primary rat microglia [5]; [17]) was 1% and the “Quadrant (FIG. 5b)” value [6, 18] was “Q3”. For the same molecule, the inhibition at 10 µM ([6]; Microglia, Table 3, read-out: Cherry-picked Hit (Suppl. Table 7)) was over 50%, the inhibition at 10 µM [6, 19] was over 50% and the “Quadrant (FIG. 5b)” value ([6]; Table 1, screen at 10 μM) was “Q3”. For the same molecule, the “Quadrant (FIG. 5b)” value ([6]; Table 3, screen at 10 μM) was “Q3”, the “Quadrant (FIG. 5b)” value [6, 21] was “Q3” and the IC50 (in vitro [7]) was over 20 µM.
Molecule `CC(=O)O[C@H]1C[C@@]2(C)[C@@H](C[C@@H](O)[C@H]3[C@@]4(C)CC[C@@H](O)[C@@H](C)[C@@H]4CC[C@@]32C)/C1=C(\CCC=C(C)C)C(=O)O` [Fusidic acid, reference compound] has an IC50 [1, 8] of 19 µM, an IC50 [1, 9] of 19 µM and an IC50 [1, 10] of 19 µM. It also gave an inhibition at 10 µM [1, 11] of 77%, an IC50 (in vitro [2]; cFib assay) of over 20 µM and an IC50 [3, 12] of over 20 µM. It also gave an inhibition at 10 µM [3, 13] of 74%, an IC50 [3, 14] of over 20 µM and an IC50 [3, 15] of over 20 µM. For the same molecule, the “LPS % cell toxicity” value (primary rat microglia [4]; [16]) was 2%, the “Fibrin % cell toxicity” value (primary rat microglia [5]; [17]) was 1% and the “Quadrant (FIG. 5b)” value [6, 18] was “Q2”. The inhibition at 10 µM [6, 19] was over 50%, the inhibition at 10 µM [6, 20] was over 50% and the “Quadrant (FIG. 5b)” value ([6]; Table 1, screen at 10 μM) was “Q2”. For the same molecule, the “Quadrant (FIG. 5b)” value [6, 21] was “Q2” and the IC50 (in vitro [7]) was over 20 µM.
Work on `Nc1ccc(S(=O)(=O)Nc2cnc3ccccc3n2)cc1` [Sulfaquinoxaline sodium, reference compound] yielded an IC50 [1, 8] of over 20 µM, an IC50 [1, 9] of over 20 µM and an IC50 [1, 10] of over 20 µM. The inhibition at 10 µM [1, 11] was 106%, the IC50 (in vitro [2]; cFib assay) was over 20 µM and the IC50 [3, 12] was over 20 µM. It also gave an inhibition at 10 µM [3, 13] of 104%, an IC50 [3, 14] of over 20 µM and an IC50 [3, 15] of over 20 µM. The “LPS % cell toxicity” value (primary rat microglia [4]; [16]) was 3%, the “Fibrin % cell toxicity” value (primary rat microglia [5]; [17]) was 3% and the “Quadrant (FIG. 5b)” value [6, 18] was “Q2”. For the same molecule, the inhibition at 10 µM [6, 19] was over 50%, the inhibition at 10 µM [6, 20] was over 50% and the “Quadrant (FIG. 5b)” value ([6]; Table 1, screen at 10 μM) was “Q2”. For the same molecule, the “Quadrant (FIG. 5b)” value [6, 21] was “Q2” and the IC50 (in vitro [7]) was over 20 µM.
